The experiment relates to LPA 18:2 in rat plasma. Put plainly: Rat whole blood (plasma) LPA assay. The conditions noted are these: 2 h at 37 C, LPA 18:2 by LC-MS/MS. The format is biochemical. On the procedure:
Whole blood is collected from rats or mouse by exsanguinations on sodium heparin tube, then after centrifugation at 3000 rpm for 15 min at 4° C., plasma is stored at −80° C. Compounds are diluted in DMSO in concentration dependent manner then 0.5 μL are dispensed into 96-well plate placed in ice. Plasma is defrosted on ice then 49.5 μL of plasma are added into the well containing 0.5 μL of compound (1% DMSO final). Plates are covered with a lid in polypropylene and incubated at +37° C., 5% CO2, for 2 h under gentle shaking (except controls which are stored at −20° C.).
At the end of the incubation, controls are defrosted in ice and transferred in the incubated plates for LC-MS/MS analysis with a non GLP-validated method. For the analysis, plasma proteins from a 10 μL incubated plates are precipitated with an excess of methanol containing the internal standard, LPA 17:0. After centrifugation, the corresponding supernatant is injected on a C18 column. Analytes are eluted out of the column under isocratic conditions. An API5500 QTRAP mass spectrometer (ABSciex™) is used for the detection of LPA 18:2. No calibration curve is prepared for LPA 18:2, however relative quantities are evaluated based on the peak area.
As a reminder, the IC50 is the point on the concentration scale where inhibition reaches its midpoint. Higher therefore signals weaker potency. In the case of `CCc1nc2cc(F)c(N3CCN(CC(=O)N4CC(O)C4)CC3)cn2c1N(C)c1nc(-c2ccc(F)cc2)c(C#N)s1` [Compound 18, 2-[(2-Ethyl-7-fluoro-6-{4-[2-(3-hydroxy-azetidin-1-yl)-2-oxo-ethyl]-piperazin-1-yl}-imidazo[1,2-a]pyridin-3-yl)-methyl-amino]-4-(4-fluoro-phenyl)-thiazole-5-carbonitrile], the IC50 is 0.01 to 100 nM. The same measure for `CCc1nc2c(C)cc(N3CCN(CC(=O)N4CC(C)(O)C4)CC3)cn2c1N(C)c1nc(-c2ccc(F)cc2)c(C#N)s1` [Compound 3, 2-((2-ethyl-6-(4-(2-(3-hydroxy-3-methylazetidin-1-yl)-2-oxoethyl)piperazin-1-yl)-8-methylimidazo[1,2-a]pyridin-3-yl)(methyl)amino)-4-(4-fluorophenyl)thiazole-5-carbonitrile]: 100 to 500 nM; for `CCc1nc2c(F)cc(N3CCN(CC(=O)N4CC[C@@H](O)C4)CC3)cn2c1N(C)c1nc(-c2ccc(F)cc2)cs1` [Compound 16, (R)-2-(4-(2-ethyl-8-fluoro-3-((4-(4-fluorophenyl)thiazol-2-yl)(methyl)amino)imidazo[1,2-a]pyridin-6-yl)piperazin-1-yl)-1-(3-hydroxypyrrolidin-1-yl)ethanone]: 500 to 1000 nM; for `CCc1nc2c(F)cc(N3CCN(CC(=O)N4CC[C@H](O)C4)CC3)cn2c1N(C)c1nc(-c2ccc(F)cc2)cs1` [Compound 15, (S)-2-(4-(2-ethyl-8-fluoro-3-((4-(4-fluorophenyl)thiazol-2-yl)(methyl)amino)imidazo[1,2-a]pyridin-6-yl)piperazin-1-yl)-1-(3-hydroxypyrrolidin-1-yl)ethanone]: 500 to 1000 nM. In turn, `CCc1nc2c(C)cc(N3CCN(CC(=O)N4CC(O)C4)C(C)(C)C3)cn2c1N(C)c1nc(-c2ccc(F)cc2)c(C#N)s1` [Compound 6, 2-((2-ethyl-6-(4-(2-(3-hydroxyazetidin-1-yl)-2-oxoethyl)-3,3-dimethylpiperazin-1-yl)-8-methylimidazo[1,2-a]pyridin-3-yl)(methyl)amino)-4-(4-fluorophenyl)thiazole-5-carbonitrile] had an IC50 of 100 to 500 nM. The same measure for `CCc1nc2c(F)cc(N3CCN(CC(=O)N4CC(O)C4)CC3)cn2c1N(C)c1nc(-c2ccc(F)cc2)cs1` [Compound 14, 2-(4-(2-ethyl-8-fluoro-3-((4-(4-fluorophenyl)thiazol-2-yl)(methyl)amino)imidazo[1,2-a]pyridin-6-yl)piperazin-1-yl)-1-(3-hydroxyazetidin-1-yl)ethanone]: 0.01 to 100 nM; for `CCc1nc2c(C)cc(C3CCN(CC(=O)N4CC(O)C4)CC3)cn2c1N(C)c1nc(-c2ccc(F)cc2)c(C#N)s1` [Compound 10, 2-((2-ethyl-6-(1-(2-(3-hydroxyazetidin-1-yl)-2-oxoethyl)piperidin-4-yl)-8-methylimidazo[1,2-a]pyridin-3-yl)(methyl)amino)-4-(4-fluorophenyl)thiazole-5-carbonitrile]: 100 to 500 nM; for `CCc1nc2cc(F)c(N3CCN(CC(=O)N4CC(O)C4)CC3)cn2c1N(C)c1nc(-c2ccc(F)cc2)cs1` [Compound 19, 2-[4-(2-Ethyl-7-fluoro-3-{[4-(4-fluoro-phenyl)-thiazol-2-yl]-methyl-amino}-imidazo[1,2-a]pyridin-6-yl)-piperazin-1-yl]-1-(3-hydroxy-azetidin-1-yl)-ethanone]: more than 1000 nM.

The record behind these values is patent US9670204B2, “Compounds and pharmaceutical compositions thereof for the treatment of inflammatory disorders” (Galapagos NV, priority 2013, dated 2017).
